Measured values from ChEMBL document CHEMBL1201862, “PubChem BioAssay data set” (2004).
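Grown in 96-well plates, cells were treated for 48 hours with each compound at five concentrations. Insufficient inhibition: endpoint recorded as highest concentration tested. At the GI50, growth is halved.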 Active and inactive are the calls of the source. No stated cut-off is given here; in the data, active = GI50 up to about 1.1 µM and inactive = higher.

Legend:
Assay in all cases: inhibition of tumour cell growth, NCI panel, 48 h
RXF 631 = system: RXF 631
DMS-273 = system: DMS-273
XF498 = system: XF498
SNB-78 = system: SNB-78
DLD-1 = system: DLD-1
M19-MEL = system: M19-MEL
HOP-18 = system: HOP-18
LXFL 529 = system: LXFL 529

Measured: GI50

Cn1c(=O)nc2n(-c3ccc(Br)cc3)c3ccccc3nc-2c1=O
inactive: RXF 631 4.11 µM | DMS-273 1.88 µM | XF498 12.1 µM | SNB-78 14 µM | DLD-1 4.05 µM | M19-MEL 1.49 µM | HOP-18 5.6 µM | LXFL 529 12.2 µM

COc1cccc(NC(=O)CC(=O)n2nc(C)c(/N=N/c3ccccc3)c2C)c1
inactive: RXF 631 > 100 µM | DMS-273 > 100 µM | XF498 56.9 µM | SNB-78 > 100 µM | DLD-1 > 100 µM | M19-MEL > 100 µM | HOP-18 12 µM | LXFL 529 > 100 µM

COc1cc2c(cc1OC)C(Cl)C(c1ccc(Cl)cc1)=C2Cl (centres undefined)
inactive: RXF 631 21.3 µM | DMS-273 17.7 µM | XF498 3.45 µM | SNB-78 13 µM | DLD-1 16.3 µM | M19-MEL 17.1 µM | HOP-18 15.9 µM | LXFL 529 4.23 µM
